Test: Solid-form stability under forced-air drying (XRPD)
Format: physicochemical
Conditions: drying at 90° C. for over 100 hours, under vacuum, in a stove
Procedure: Forced-air drying here means drying at 90° C. for over 100 hours, under vacuum, in a stove.

SMILES | Stability of the amorphous form after forced-air drying
CNC(=O)c1ccc(N2C(=S)N(c3cnc(C#N)c(C(F)(F)F)c3)C(=O)C23CCC3)cc1F [amorphous form obtained by evaporation of the solvent after ] [4-{7-[6-cyano-5-(trifluoromethyl)pyridin-3-yl]-8-oxo-6-sulphanylidene-5,7-diazaspiro[3,4]octan-5-yl}-2-fluoro-N-methylbenzamide] | converted to a mixture of amorphous form, form A and form B
CNC(=O)c1ccc(N2C(=S)N(c3cnc(C#N)c(C(F)(F)F)c3)C(=O)C23CCC3)cc1F [stable amorphous form of apalutamide, 4-{7-[6-cyano-5-(trifluoromethyl)pyridin-3-yl]-8-oxo-6-sulphanylidene-5,7-diazaspiro[3,4]octan-5-yl}-2-fluoro-N-methylbenzamide] | stable

Source: US20220153718A1, “SYNTHESIS OF STABLE AMORPHOUS APALUTAMIDE” (OLON S.P.A., priority 2019, published 2022)
